Values quoted from earlier work, collected in patent US11963940B2, “Parenteral esmolol formulation” (AOP ORPHAN PHARMACEUTICALS AG, priority 2012, dated 2024).

Settings: after the starting dose, e.g. initial infusion

- time to steady state plasma concentration: ≤ 5 min
Compound: COC(=O)CCc1ccc(OCC(O)CNC(C)C)cc1.Cl (stereo not shown) [esmolol, 4-[2-Hydroxy-3-[(1-methylethyl)amino]propoxy] benzenepropanoic acid methyl ester hydrochloride]
